Reference: US20220265766A1, “ANTIMICROBIAL THERAPY THROUGH THE COMBINATION OF PORE-FORMING AGENTS AND HISTONES” (THE REGENTS OF THE UNIVERSITY OF CALIFORNIA, priority 2019, published 2022)
“Also recorded” adds a separate entry of the source.

Experiments:
[1] = system: E. coli; assay type: cell-based, Escherichia coli; conditions: 1 mM magnesium; 10 μg/mL H2A, 2 μM LL-37, 10 μM MAG2, 1 μg/mL PMB, 10 μg/mL Kan, 10 μg/mL Cam, alone or combined
Description: Growth curve experiments were performed using a Synergy HTX multi-mode plate reader and sterile, tissue-culture treated, clear bottom, black polystyrene 96-well microplates (Corning). The temperature setpoint was 37° C. and preheated before beginning measurements. Each well contained 200 μL of total bacterial solution. For experiments performed with stationary phase bacteria, overnight cultures of bacteria were grown overnight to saturation, diluted 1:1000 into minimal medium with 1 μM or 1 mM MgSO4, and supplemented with H2A, LL-37, kanamycin, chloramphenicol, or polymyxin B. For experiments performed with exponential phase bacteria, overnight cultures of bacteria were sub-cultured in fresh minimal medium containing 1 mM MgSO4 and grown to an optical density at 600 nm (OD600) of 0.2. Exponential-phase bacteria were diluted 1:20 into fresh minimal medium with 1 μM or 1 mM MgSO4, and supplemented with H2A, LL-37, magainin-2, kanamycin, chloramphenicol, or polymyxin B. After adding antimicrobial agents, bacterial cultures were immediately added to the 96-well microplates for growth measurements. Growth curves were constructed by taking measurements every 15 minutes for up to 48 hours. Shaking was set to continuous orbital, with a frequency of 282 cpm (3 mm). The read speed was normal, with a 100 msec delay, and 8 measurements per data points.

[2] = system: E. coli; experiment: Fluorescent histone and fluorescent LL-37 uptake in E. coli; assay type: cell-based, Escherichia coli; conditions: 1 hour; for AF-H2A uptake (cellular fluorescence): 10 μg/mL AF-H2A alone or with 10 μg/mL Cam, 50 μg/mL Kan, 2 μM LL-37, 1 μg/mL PMB or 10 μM MAG2, 1 mM magnesium
Description: E. coli strain MG1655 or S. aureus strain RN4220 was cultured to an OD600 of 0.2, and diluted 1:20 into fresh minimal medium containing 1 mM MgSO4. H2A uptake in E. coli was measured by adding 10 μg/mL AF-H2A (1% Alexa Fluor-labeled H2A mixed with 99% unlabeled H2A) and 10 μg/mL Cam, 50 μg/mL Kan, 2 μM LL-37, 1 μg/mL PMB, or 10 μM MAG2, incubating for 1 hour, and analyzing using fluorescence microscopy. H2A uptake in S. aureus was measured using same concentrations of AF-H2A and LL-37. To measure uptake in low ionic conditions, E. coli was grown to OD600 of 0.2 in minimal medium containing 1 mM MgSO4, and diluted 1:20 into fresh minimal medium containing 1 μM or 1 mM MgSO4. H2A uptake in E. coli was measured by adding 10 μg/mL AF-H2A (1% Alexa Fluor-labeled H2A mixed with 99% unlabeled H2A), incubating for up to 3 hours, and analyzing using fluorescence microscopy. LL-37 uptake in both bacteria was measured by adding 1 μM fluorescently-labeled LL-37 (1% 5-FAM-LC-LL-37 (Anaspec) mixed with 99% unlabeled LL-37) or additionally with 10 μg/mL unlabeled H2A, incubating for 1 hour, and imaging using fluorescence microscopy. Time-lapse measurements of LL-37 uptake in E. coli were performed by adding 2 μM fluorescently-labeled LL-37 (3% 5-FAM-LC-LL-37 mixed with 97% unlabeled LL-37) or additional 10 μg/mL unlabeled H2A, immobilizing on agarose pads, and imaging using fluorescence microscopy. Cell membranes were visualized by adding 1.6 μM FM4-64 (MilliporeSigma, Burlington, Mass.), immobilizing on agarose pads, and imaging using fluorescence microscopy.

[3] = system: E. coli; experiment: SEM imaging of E. coli; assay type: cell-based, Escherichia coli; conditions: 10 μg/mL H2A, 1 μM LL-37 or both; 1 hour; 1 mM magnesium
Description: MG1655 was cultured to an OD600 of 0.2, diluted 1:20, and supplemented with 10 μg/mL H2A and/or 1 μM LL-37. Cells were treated for 1 hour and added to a glass bottomed petri dish for 15 minutes. Due to lower levels of adhesion, control cells were not diluted 1:20 and were incubated in the glass-bottomed petri dish for 45 minutes. Media was removed and 4% paraformaldehyde (PFA) was added for 20 minutes to fix bacteria. Dehydration was performed using serial ethanol dilutions. The fixed and dehydrated samples were coated with 10 nm of iridium using an ACE600 sputter coater (Leica Microsystems, Buffalo Grove, Ill.). Bacteria and surfaces were then characterized using a FEI Magellan 400 XHR Scanning Electron Microscope (FEI Company, Hillsboro, Oreg.) at a 45° tilt angle with an acceleration voltage of 3 kV.

[4] = system: E. coli; experiment: Timelapse of E. coli recovery and time course of membrane healing (CFP, PI); assay type: cell-based, Escherichia coli; conditions: then washed
Description: To quantify the time-course of recovery in E. coli treated with LL-37 alone or with the synergistic combination of LL-37 and H2A, MAL204 was cultured to mid-exponential phase in MinA minimal medium, added 1 μM LL-37 or 1 μM LL-37 with 10 μg/mL H2A, and incubated for 1 hour. The solution was filtered through a 0.22 μm filter to remove excess LL-37 and H2A and cells were resuspended in fresh minimal medium. Cells were immobilized on a 1% agarose pad and imaged over an hour time period.
To quantify the time-course of membrane repair in bacteria treated with H2A alone, AMPs alone, or the synergistic combination of AMPs and H2A, MAL204 was grown to mid-exponential phase in MinA minimal medium, diluted 1:20 with 10 μg/mL H2A, 1 μM LL-37, 1 μM LL-37 with 10 μg/mL H2A, 10 μM MAG2, or 1 μM MAG2 with 10 μg/mL H2A, and incubated for 1 hour. […] Cells were allowed to recover for 0, 30, 60 minutes before the addition of 30 μM propidium iodide for 15 minutes prior to performing fluorescence microscopy. Intracellular propidium iodide fluorescence and CFP fluorescence were quantified. To quantify the time-course of membrane repair in bacteria treated with H2A in low and physiological environments, MAL204 was grown to mid-exponential phase, diluted 1:20 into minimal media with 1 μM or 1 mM MgSO4, with or without 10 μg/mL H2A, and incubated for 3 hours. […]

[5] = system: E. coli; experiment: Chromosomal analysis using SYTOX and HupA-mRuby2; assay type: cell-based, Escherichia coli; conditions: 10 μg/mL H2A, 2 μM LL-37 or both; 3 hours
Description: MG1655 or XL-1 Blue expressing HupA-mRuby2 was cultured to OD600 of 0.2, diluted 1:20 into fresh MinA minimal medium, and treated with 2 μM LL-37, 10 μg/mL H2A or both LL-37 and H2A for 30 minutes. For SYTOX visualization, MG1655 were stained with 3 uM SYTOX Green nucleic acid stain (ThermoFisher, Waltham, Mass.) for 10 minutes. Cells were immobilized on agarose pads containing 2 uM LL-37, 10 μg/mL H2A, or both LL-37 and H2A, and remained on the pad for 3 hours before imaging using the fluorescence microscopy. For SYTOX analysis, pads additionally contained 5 uM SYTOX Green. Raw images were analyzed through principal component analysis using our own custom-written image analysis tools^67,68 version 1.1 and modified in Matlab (Version R2017b; Mathworks, Natick, Mass.). See ‘Code Availability’ section below for code. Individual cells were identified in phase contrast images using canny edge detection and using SuperSegger^70. […] The covariances between corresponding pixels of different cells were computed using the 16 bit intensity values from the rotated and resized fluorescence images and for the same images rotated by an additional 180 degrees. […] The size of each bin was determined by subtracting the minimum principal component score from the maximum principal component score and dividing that by the number of bins along that principal component. […]

[6] = system: E. coli; conditions: E. coli after 12 hours; reported (ref. 36); cited from earlier work
[7] = system: E. coli; experiment: Cell aggregate size and cell size analysis; assay type: cell-based, Escherichia coli
Description: MG1655 were cultured to an OD600 of 0.2, diluted 1:20 into fresh MinA minimal medium, treated with 0-4 μM LL-37 or 0-100 μg/mL H2A, and incubated for 1 hour. Cells were immobilized on an agarose pad using, imaged using phase contrast microscopy, and analyzed using our own custom-written image analysis tools^67,68. version 1.1 that was written in Matlab (Version R2017b; Mathworks, Natick, Mass.). See ‘Code Availability’ section below to download code. The total pixel area of each individual cell was determined by computing the mask area and converting from pixels to μm^2 by multiplying the mask area by a factor of 0.00422 μm^2/pixel to account for the microscope camera pixel size and objective magnification.

[8] = system: E. coli genomic DNA; experiment: Non-denaturing nucleic acid PAGE; assay type: binding, Escherichia coli; conditions: 1 μg DNA with 0-1.4 μg H2A or LL-37
Description: Overnight MG1655 cultures were grown to saturation in Minimal. DNA purification was performed using a Miniprep kit (Qiagen, Germantown, Md.). A three-second sonication step was performed after lysis to isolate genomic DNA.
10 μL mixtures containing 1 μg purified DNA from MG1655 were incubated with 0-1.4 μg Histone H2A or LL-37 for 25 minutes at 25° C. Gel loading sample buffer (5×, Bio-Rad, Hercules, Calif.) was added to a final concentration of 1× and the products were separated by native PAGE on a 5% TBE gel (Bio-Rad, Hercules, Calif.) at 100 V for 60 minutes. The gel was stained with 1×SYBR safe (Invitrogen, Carlsbad, Calif.) in TBE buffer^71 for 30 minutes before visualization using a EOS Rebel T5 DSLR camera with an f/3.5-5.6 18-55 mm lens (Canon, Huntington, N.Y.) and a DR46B Transilluminator (Clare Chemical, Dolores, Colo.).

[9] = system: E. coli; experiment: In vivo transcription assay (tet-inducible mCherry); assay type: cell-based, Escherichia coli; conditions: 1-hour pre-treatment with 10 μg/mL H2A, 2 μM LL-37 or both; anhydrotetracycline 1 hour
Description: To determine how histone entry into the bacterial cell impacts transcription, MAL190 was cultured to mid-exponential phase, diluted 1:20 in MinA minimal medium, treated with 10 μg/mL Histone H2A and/or 2 μM LL-37, incubated for 1 hour, and induced for transcription using 50 ng/mL of anhydrotetracycline. The fluorescence of mCherry was measured after 1 hour using fluorescence microscopy.

Compound	E. coli growth (growth rate, lag time) [1]	AF-H2A uptake (cellular fluorescence) [2]	cell morphology by SEM [3]	CFP fluorescence / growth during 1-hour recovery period ([4]; 1-hour treatment with 10 μg/mL H2A, 1 μM LL-37, 10 μM MAG2, alone or combined)	PI fluorescence during 1-hour recovery ([4]; 1-hour treatment with H2A, LL-37, MAG2, alone or combined)	HupA-mRuby2 localization [5]	chromosome localization pattern (Sytox Green) [5]	bulk minimum inhibitory concentration (MIC) [6]	LL-37 uptake (5-FAM-LL-37 fluorescence) ([2]; fluorescently-labeled LL-37 alone or with 10 μg/mL H2A)	aggregation of cells ([7]; H2A or LL-37, 1 hour)	cell size ([7]; LL-37 alone, indicated concentrations, 1 hour)	migration / retention of E. coli DNA in gel [8]	mCherry fluorescence (transcription induction) [9]
O=C(N[C@H](CO)[C@H](O)c1ccc([N+](=O)[O-])cc1)C(Cl)Cl [chloramphenicol, reference compound]	increased the growth lag time	did not induce AF-H2A uptake	–	–	–	–	–	–	–	–	–	–	–
LL-37: human cathelicidin antimicrobial peptide LL-37 (Anaspec)	decreased the growth rate and slightly extended the lag time	significantly enhanced AF-H2A uptake	few cell morphological differences	resumed growth and division and retained expression of CFP; also recorded: CFP fluorescence increased or remained the same	significantly lower	condensed the fluorescence near the center of the cell	no significant change in localization	2 µM	Fluorescence was observed in the cytoplasm	did not induce aggregation	significant reduction in cell size	less retention of bacterial DNA	little effect on mCherry fluorescence
polymyxin B [PMB, reference compound]	slightly inhibited growth	significantly enhanced AF-H2A uptake	–	–	–	–	–	–	–	–	–	–	–
